According to patent publication US20200087374A1, “INTERACTION BETWEEN C-PEPTIDES AND ELASTIN RECEPTOR, A MODEL FOR UNDERSTANDING VASCULAR DISEASE” (Resiliun B.V., priority 2017, published 2020):
“Also recorded” adds a separate entry of the source. Read-outs that look alike come from different tables or passages of the source.

Key:
Human monocytes = experiment: Monocyte chemotaxis in 48-well microchemotaxis chamber; format: cell-based; details: for effect on monocyte chemotaxis induced by C-peptide: cells exposed 30 minutes before assay, C-peptide 0.1-10 nmol/L, antibodies 1:1000; for effect on monocyte chemotaxis induced by C-peptide / effect on monocyte chemotaxis in response to VGVAPG: sugars 1 mmol/L; for induction of monocyte chemotaxis: stimulus in lower wells
Protocol: Human monocytes are isolated from freshly drawn blood of healthy volunteers using serial Ficoll/Percoll gradient centrifugation, as described elsewhere. Cells are cultured for 16 hours in RPMI-1640 media supplemented with 0.5% human serum to become quiescent after isolation. Purity of the cells is >95% as determined by flow cytometry analysis. Monocyte chemotaxis is assayed in a 48-well microchemotaxis chamber (Neuroprobe, Gaithersburg, Md.) in serum-free media. Wells in the upper and lower chamber are separated by a polyvinylpyrrolidone-free polycarbonate membrane (pore size 5 μm; Costar). Freshly isolated monocytes at a density of 5×10^5/mL are incubated for 2.5 hours with recombinant C-peptide (Sigma), before migrated cells on the bottom face of the filter are stained and counted under the light microscope. Maximal chemotactic activity is measured with 0.1 mmol/L N-formyl-methionyl-leucyl-phenylalanine (f-MLF; Sigma Chemical Co), and checkerboard analysis is used to distinguish chemotaxis from chemokinesis. Inhibition of chemotaxis is tested by competition with VGVAPG, a repetitive peptide sequence found in human and bovine elastin (Sigma Chemical Co), and BA-4, an antielastin-blocking antibody. Controls for BA-4 include mouse immunoglobulin G (IgG; PharMingen, San Diego, Calif.). Exposure of cells to lactose is used to specifically dissociate the 67-kD EBP. Controls for lactose included glucose, fructose, and mannose, none of which affect the 67-kD EBP. In each case, monocytes cells are exposed to the relevant concentrations of SEQ ID NO:41 (VGVAPG) (10-9 to 10-5 mol/L), antibodies (1:1000), or sugars (1 mmol/L) for 30 minutes before the chemotaxis assays are started. […] Monocytes in the upper wells of the assay chamber are exposed to varying concentrations of SEQ ID NO:41 (VGVAPG) for 30 minutes before stimulation by human recombinant C-peptide (0.1 nmol/L-10 nmol/L) in the lower wells. […] C-peptide-derived chemotactic activity is eliminated by competition with […]=SEQ ID NO:41 (VGVAPG), a repetitive peptide found in human elastin that binds to cellular elastin receptors, and decreases in the presence of BA-4, a monoclonal antibody that can block elastin peptide mediated chemotactic activity. Monocyte chemotaxis in response to both SEQ ID NO:41 (VGVAPG) and C-peptide is abolished in the presence of lactose, a galactosugar that specifically dissociates the 67-kD EBP, but it is unaffected by glucose, fructose, or mannose. […] Chemotaxis is also assayed by a double micropore membrane system in modified Boyden chambers. The lower compartment containing 180 micro-l of C-peptide or fragments thereof at various concentrations is separated from the upper compartment containing 200 micro-1 of cell suspension ([…] cells, such as endothelial cells or smooth muscle cells or pericytes or keratinocytes of fibroblasts or leukocytes per ml medium) by a 10 micro-m polycarbonate membrane (Millipore, Bedford, Mass.). The membranes are presoaked in bovine type I collagen (25 micro-g phosphate-buffered saline per ml) (Chemicon International, Temecula, Calif.) for 24 h at room temperature to facilitate the attachment of cells. The chambers are incubated for 18 h at 37° C. in 5% CO2-balanced air. The chambers are then disassembled, and the membrane pairs are stained with hematoxylin. The cell number of a number, such as five, random and nonoverlapping fields under a microscope is counted. For all experiments, medium alone in the bottom chamber may serve as the baseline control. To confirm directed cell migration, the concentration gradient between the upper and lower compartments may be abolished by adding various doses of elastin to the cell suspension. Chemotaxis is assayed as described above. Chemotaxis may also be studied in an ex vivo aortic ring assay measuring endothelial cell migration and proliferation

CD4+ immune cells = experiment: Boyden chamber migration of CD4+ immune cells; format: cell-based; details: for reduction/inhibition of C-peptide specific biological activity: preliminary
Protocol: Human monocytes are isolated from freshly drawn blood of healthy volunteers using serial Ficoll/Percoll gradient centrifugation, as described elsewhere. Cells are cultured for 16 hours in RPMI-1640 media supplemented with 0.5% human serum to become quiescent after isolation. Purity of the cells is >95% as determined by flow cytometry analysis. Monocyte chemotaxis is assayed in a 48-well microchemotaxis chamber (Neuroprobe, Gaithersburg, Md.) in serum-free media. Wells in the upper and lower chamber are separated by a polyvinylpyrrolidone-free polycarbonate membrane (pore size 5 μm; Costar). Freshly isolated monocytes at a density of 5×10^5/mL are incubated for 2.5 hours with recombinant C-peptide (Sigma), before migrated cells on the bottom face of the filter are stained and counted under the light microscope. Maximal chemotactic activity is measured with 0.1 mmol/L N-formyl-methionyl-leucyl-phenylalanine (f-MLF; Sigma Chemical Co), and checkerboard analysis is used to distinguish chemotaxis from chemokinesis. […] Controls for BA-4 include mouse immunoglobulin G (IgG; PharMingen, San Diego, Calif.). Exposure of cells to lactose is used to specifically dissociate the 67-kD EBP. Controls for lactose included glucose, fructose, and mannose, none of which affect the 67-kD EBP. In each case, monocytes cells are exposed to the relevant concentrations of SEQ ID NO:41 (VGVAPG) (10-9 to 10-5 mol/L), antibodies (1:1000), or sugars (1 mmol/L) for 30 minutes before the chemotaxis assays are started. […] Chemotaxis is also assayed by a double micropore membrane system in modified Boyden chambers. […] The membranes are presoaked in bovine type I collagen (25 micro-g phosphate-buffered saline per ml) (Chemicon International, Temecula, Calif.) for 24 h at room temperature to facilitate the attachment of cells. The chambers are incubated for 18 h at 37° C. in 5% CO2-balanced air. The chambers are then disassembled, and the membrane pairs are stained with hematoxylin. The cell number of a number, such as five, random and nonoverlapping fields under a microscope is counted. For all experiments, medium alone in the bottom chamber may serve as the baseline control. To confirm directed cell migration, the concentration gradient between the upper and lower compartments may be abolished by adding various doses of elastin to the cell suspension. Chemotaxis is assayed as described above.

elastin receptor = target: T1, elastin receptor (Homo sapiens, UniProt P16278); details: cited from earlier work
T1 sequence (P16278 29-546 isoform P16278-2 limits assumed): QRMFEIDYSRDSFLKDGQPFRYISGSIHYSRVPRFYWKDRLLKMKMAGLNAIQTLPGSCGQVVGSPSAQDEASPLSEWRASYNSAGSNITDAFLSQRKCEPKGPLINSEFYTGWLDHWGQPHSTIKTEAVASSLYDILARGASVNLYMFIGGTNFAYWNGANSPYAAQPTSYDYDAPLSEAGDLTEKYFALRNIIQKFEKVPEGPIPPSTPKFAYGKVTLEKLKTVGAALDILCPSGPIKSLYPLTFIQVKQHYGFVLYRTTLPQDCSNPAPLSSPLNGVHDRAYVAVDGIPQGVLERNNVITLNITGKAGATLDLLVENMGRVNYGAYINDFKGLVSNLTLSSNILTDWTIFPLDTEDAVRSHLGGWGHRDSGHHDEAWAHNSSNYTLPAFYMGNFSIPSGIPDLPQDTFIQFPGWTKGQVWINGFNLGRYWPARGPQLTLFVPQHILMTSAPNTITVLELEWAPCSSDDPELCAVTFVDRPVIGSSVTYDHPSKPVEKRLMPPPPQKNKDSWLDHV

[1] = test system: 30 mM glucose-induced vascular dysfunction in rats; details: cited from earlier work; for normalization/prevention of glucose-induced vascular dysfunction: 30 mM glucose, rats; for potency relative to native C-peptide: vascular dysfunction model
[2] = test system: arteriosclerotic lesion development; details: mice; cited from earlier work
[3] = in vivo; cited from earlier work
Na(+),K(+)-ATPase = details: cited from earlier work
[4] = test system: cell membrane-bound C-peptide; details: cited from earlier work
[5] = test system: MAP kinase signalling pathways; details: cited from earlier work
[6] = test system: human renal tubular cells; details: cited from earlier work
Na^+K^+ATPase = details: rat renal tubule cells; cited from earlier work

With `O=C(CO)[C@@H](O)[C@H](O)[C@H](O)CO` [fructose] the “effect on monocyte chemotaxis induced by C-peptide” value (“effect … by C-peptide” below) (Human monocytes) was “unaffected” and the “effect on monocyte chemotaxis in response to VGVAPG” value (Human monocytes) was “unaffected”.

In the case of `OC[C@H]1O[C@@H](O[C@H]2[C@H](O)[C@@H](O)C(O)O[C@@H]2CO)[C@H](O)[C@@H](O)[C@H]1O` (stereo partly shown) [lactose], the “effect … by C-peptide” value (Human monocytes) was “abolished”, the “effect on monocyte chemotaxis in response to VGVAPG” value (Human monocytes) was “abolished” and the “reduction/inhibition of C-peptide specific biological activity” value (CD4+ immune cells; in vitro) was “reduction of C-peptide specific biological activity”. The “antagonism of elastin peptide (ERC-ligand) binding to elastin receptor/EBP” value (shortened to “antagonism … to elastin receptor/EBP”) (elastin receptor) was “inhibited; also recorded: antagonized” and the “antagonism … to elastin receptor/EBP” value (elastin receptor; listed as Lactose) was “antagonise elastin peptide binding”.

For “D-EAEDLQVGQVELGGGPGAGSLQPLALEGSLQ (all D-amino acids) [enantio C-peptide]”, the “normalization/prevention of glucose-induced vascular dysfunction” value (from here on “normalization/prevention”) [1] is listed as “biologically active” and the “potency relative to native C-peptide” value [1] is listed as “equipotent to native C-peptide”.

In the case of DLQVGQVELGGGPGAGSLQPL [SEQ ID NO:20], the “normalization/prevention” value [1] is listed as “significant normalization”.

For “DLQVGQVELGGGPGAGSLQPLALEGSLQ [SEQ ID NO:10]”, the “normalization/prevention” value [1] is listed as “significant normalization”.

For “EAEDLQVGQVELGGGPGAGSLQPL (EAEDLQVGQVELGGGPGAGSLQPLAL) [SEQ ID NO:17]”, the “normalization/prevention” value [1] is given as “significant normalization”.

For “EAEDLQVGQVELGGGPGAGSLQPLALEGSLQ [C-peptide]”, the “checkerboard analysis: chemotaxis versus chemokinesis” value (Human monocytes) was “stimulates chemotaxis without a chemokinetic effect”, the “induction of monocyte chemotaxis” value (Human monocytes) was “stimulates a concentration-dependent increase in monocyte migration” and the “increase of migration of CD4+ immune cells” value (CD4+ immune cells; C-peptide at 10 nM, 1% serum medium, in vitro) was 100%. The “arteriosclerotic lesion development / atherogenicity” value [2] was “promote experimental arteriosclerotic lesion development in mice; also recorded: atherogenic in mice”, the half-life [3] was 30 min and the plasma half-life [3] was roughly 30 min.

In the case of “EAENPQAGAVELGGGLGGLQALALEGPPQ [pig C-peptide, pig C-peptide, midportion LGGGLG]”, the “normalization/prevention” value [1] is given as “inactive”.

In the case of EGSLQ [SEQ ID NO:6], the “Na(+),K(+)-ATPase” value (Na(+),K(+)-ATPase) is given as “stimulates”, the “displacement of cell membrane-bound C-peptide” value [4] is given as “displaces cell membrane-bound C-peptide” and the “MAP kinase signalling pathways” value [5] is given as “stimulates MAP kinase signalling pathways”. For the same compound, the “intracellular Ca2+” value [6] was “increases intracellular Ca(2+)” and the “intracellular Ca2+” value ([6]; listed as SEQ NO:6) was “may induce intracellular Ca2+ increases”.

In the case of ELGGGPGAG [SEQ ID NO:9], the “Na+K+ATPase activity” value (Na^+K^+ATPase) is given as “stimulate”.

For ELGGGPGAGSLQPL [SEQ ID NO:176], the “normalization/prevention” value [1] is listed as “significant normalization”.

For “EVEDPQVPQLELGGGPEAGDLQTLALEVARQ [Rat C-peptide, rat C-peptide comprising hexapeptide LGGGPE]”, the “normalization/prevention” value [1] is listed as “active”.

In the case of GGGPGAG [SEQ ID NO:8], the “normalization/prevention” value [1] is listed as “normalize glucose-induced vascular dysfunction”.

In the case of GQVELGGGPGAGSLQPLALEGSLQ [SEQ ID NO:13], the “normalization/prevention” value [1] is given as “significant normalization”.

In the case of LGGGPGAGSLQPLALEGSLQ [SEQ ID NO:14], the “normalization/prevention” value [1] is given as “significant normalization”.

In the case of “QLSGELALPQLSGAGPGGGLEVQGVQLDEAE (retro C-Peptide)”, the “normalization/prevention” value [1] is listed as “biologically active” and the “potency relative to native C-peptide” value [1] is listed as “equipotent to native C-peptide”.

For VGQVELGGGPGAGSLQPL [SEQ ID NO:175], the “normalization/prevention” value [1] is listed as “significant normalization”.

With VGVAPG [SEQ ID NO:41] the “concentration of maximal chemotactic activity” value (Human monocytes) was 0.1 mmol/L, the “effect … by C-peptide” value (Human monocytes) was “eliminates monocyte chemotaxis induced by C-peptide” and the “effect of preincubation on chemotactic response to f-MLF” value (Human monocytes; preincubation of monocytic cells) was “does not alter the chemotactic response to f-MLF”. For the same compound, the “chemotactic potency compared with f-MLF” value (Human monocytes; same concentration of f-MLF) was “considerably more potent than the same concentration of f-MLF”, the “induction of monocyte chemotaxis” value (Human monocytes) was “induces chemotaxis in a concentration-dependent manner” and the “arteriosclerotic lesion development / atherogenicity” value [2] was “promote experimental arteriosclerotic lesion development in mice”. The “binding to elastin receptor” value (elastin receptor) was “binding has been demonstrated”.

For VVGSPSAQDEASPL [V14 peptide], the “C-peptide-induced CD4-migration antagonized and diminished” value (CD4+ immune cells; V14-peptide at 1.3 microM, C-peptide at 10 nM) is listed as greater than 50%, the “reduction/inhibition of C-peptide specific biological activity” value (CD4+ immune cells; in vitro) is listed as “inhibition of bioactivity of C-peptide” and the “antagonism … to elastin receptor/EBP” value (elastin receptor) is listed as “antagonise elastin peptide binding; also recorded: inhibited; also recorded: antagonized”.
